Measurements from paper PMC3638464, “The transcriptional regulator CprK detects chlorination by combining direct and indirect readout mechanisms” (Philosophical Transactions of the Royal Society B: …, 2013).

Assays:
[1] = biological target: CprK (Desulfitobacterium hafniense, UniProt B8FW11, C200S); experiment: cell-based; format: cell-based; details: for n (Hill coefficient) / apparent Kd: in vivo, Hill fit; for n (Hill coefficient) / increase in fluorescence levels (in words): CprK C200S; for increase in fluorescence levels (in words): in vivo reporter; for apparent Kd: E. coli JM109 DE3, pGFPUV-DB7 + CprK C200S, effector concentration at half Fmax
Source text: Previous studies have shown that OCPA-dependent transcriptional activation by CprK can be monitored in Escherichia coli. To avoid any effects coupled to the redox state of the cell, we used a CprK C200S mutant as the basis for all our studies (referred to hereafter as CprK), as it was previously shown that oxidative disulfide bond formation involving C200 inactivates the regulator [23]. A region comprising 123 nucleotides of the upstream dehalobox promotor region of CprA1, containing CprK binding element dehalobox 7 (DB7), was cloned into pGFPUV in order to create a novel in vivo reporter system that makes use of an optimized variant of the green fluorescent protein (GFPUV) from Aequorea victoria. […] No significant increase in fluorescence levels could be detected in the presence of OCPA or similar compounds. […] By contrast, addition of 0.6 μM OCPA to the media leads to a nearly 10-fold increase in fluorescence levels, indicating CprK-mediated, OCPA-dependent transcriptional activation of the GFPUV gene occurs within the E. coli host. […] Our apparent Kd is the binding constant calculated as the concentration at which effector induces half Fmax (maximum fluorescence). […] In contrast to the direct measurement of formation of the CprK : OCPA complex for the in vitro experiment, the in vivo data probably report on the formation of the (CprK : OCPA : dehalobox : RNA polymerase) quaternary complex. […] It appears that under the conditions used for the pGFPUV-DB7-based system, the apparent Kd for OCPA is approximately 100-fold smaller than the established […] Kd values. […] It is important to keep in mind that transport processes could affect the intracellular OCPA concentrations across the membrane, although it would seem logical to assume this would affect OCPA and OCPA-like components in a similar manner. To confirm the apparent Kd value observed reflects inherent CprK affinity for the effector molecule, we measured the increase in fluorescence levels for a range of aromatic compounds.
(§1) Overnight culture (150 μl) was plated onto 96-well optical bottom plates (Nunc). OCPA-related compounds (table 3) were then added to various end concentrations, and the plates placed on a rotary shaker at 37°C for 3 h. GFP fluorescence levels were measured using a Synergy HT microplate reader (BioTek) using a 400 nm, 30 nm bandpass excitation filter and a 508 nm, 20 nm bandpass emission filter. Data were collected using Gen5 v. 1.05 (Biotek) software. Fluorescence was normalized against cell density and measured by absorbance at 600 nm. The fluorescence ratio was plotted against effector concentration, and apparent Kd of binding was calculated using nonlinear curve fitting to a Hill plot.

[2] = assigned value, source not stated; cited from earlier work
[3] = system: CprK K133L; experiment: In vivo GFPUV-DB7 reporter assay, K133L CprK mutant; format: cell-based, Desulfitobacterium hafniense
Description: (§2) Table 1 and figure 3 show the dependence of fluorescence levels on OCPA concentrations for Y76F, G85A, G85P and K133L CprK mutants. […] Compared with the apparent Kd of WT CprK (0.019 ± 0.002 μM) for OCPA, the Y76F mutant has an approximately 500-fold decreased affinity for OCPA. The G85P mutation leads to an even more dramatic 4500-fold decrease, but this is probably not only a consequence of removal of the backbone NH hydrogen bond, but also because of the increased size and restricted conformational freedom of the proline side chain. […] While mutations at position 76 or 85 retain some activity, mutation at position 133 leads to a complete loss of transcriptional activation response. This clearly establishes K133 as the key contributor to the polar network established with the phenol moiety.
as §1, with “OCPA-related compounds (table 3) were then added to various end concentrations, and the plates placed on a rotary shaker at 37°C for 3 h.” left out, “Data were collected using Gen5 v. 1.05 (Biotek) software.” left out

[4] = biological target: CprK Y76F (Desulfitobacterium hafniense, UniProt B8FW11, C200S/Y76F); experiment: In vivo GFPUV-DB7 reporter assay, Y76F CprK mutant; format: cell-based
Description: as §2
as §1, with “OCPA-related compounds (table 3) were then added to various end concentrations, and the plates placed on a rotary shaker at 37°C for 3 h.” left out, “Data were collected using Gen5 v. 1.05 (Biotek) software.” left out

[5] = biological target: CprK G85A (Desulfitobacterium hafniense, UniProt B8FW11, C200S/G85A); experiment: In vivo GFPUV-DB7 reporter assay, G85A CprK mutant; format: cell-based
Description: as §2
as §1, with “OCPA-related compounds (table 3) were then added to various end concentrations, and the plates placed on a rotary shaker at 37°C for 3 h.” left out, “Data were collected using Gen5 v. 1.05 (Biotek) software.” left out

[6] = biological target: CprK G85P (Desulfitobacterium hafniense, UniProt B8FW11, C200S/G85P); experiment: In vivo GFPUV-DB7 reporter assay, G85P CprK mutant; format: cell-based
Description: as §2
as §1, with “OCPA-related compounds (table 3) were then added to various end concentrations, and the plates placed on a rotary shaker at 37°C for 3 h.” left out, “Data were collected using Gen5 v. 1.05 (Biotek) software.” left out

[7] = system: CprK; details: cited from earlier work
[8] = system: CprK Y76F; set-up: method as in PMID 16803881; details: previous study; cited from earlier work

Chain of CprK (Desulfitobacterium hafniense, UniProt B8FW11, C200S) (B8FW11 entry or part of it C200S): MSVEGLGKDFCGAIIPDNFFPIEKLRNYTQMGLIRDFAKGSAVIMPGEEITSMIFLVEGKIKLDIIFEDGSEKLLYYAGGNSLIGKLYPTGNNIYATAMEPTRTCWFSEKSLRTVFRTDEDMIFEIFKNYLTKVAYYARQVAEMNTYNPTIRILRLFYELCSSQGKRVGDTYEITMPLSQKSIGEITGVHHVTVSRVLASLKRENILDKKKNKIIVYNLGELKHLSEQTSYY
Chain of CprK Y76F (Desulfitobacterium hafniense, UniProt B8FW11, C200S/Y76F) (B8FW11 entry or part of it Y76F/C200S): as the sequence (B8FW11 entry or part of it C200S) above, with Y76F counted along it
Chain of CprK G85P (B8FW11 entry or part of it G85P/C200S): as the sequence (B8FW11 entry or part of it C200S) above, with G85P counted along it
Chain of CprK G85A (B8FW11 entry or part of it G85A/C200S): as the sequence (B8FW11 entry or part of it C200S) above, with G85A counted along it

Structure (SMILES) | n (Hill coefficient) [1] | pKa value of R1 (phenol –OH) [2] | apparent Kd ([1]; 3 h) | further results
O=[N+]([O-])c1ccc(O)c(Br)c1 [2-bromo-4-nitrophenol] | 2.1 ± 0.1 | –OH (5.5) |  | 
Nc1ccc([N+](=O)[O-])cc1Cl [2-chloro-4-nitroaniline] |  |  | no binding | increase in fluorescence levels (in words) [1]: No increase
O=[N+]([O-])c1ccc(O)c(Cl)c1 [2-chloro-4-nitrophenol] | 1.7 ± 0.2 |  |  | 
O=[N+]([O-])c1ccc(O)c(F)c1 [2-fluoro-4-nitrophenol] | 4.7 ± 0.6 | –OH (5.7) |  | 
Cc1cc([N+](=O)[O-])ccc1N [2-methyl-4-nitroaniline] |  |  | no binding | 
Cc1cc([N+](=O)[O-])ccc1O [2-methyl-4-nitrophenol] | 1.8 ± 0.1 | –OH (7.4) |  | difference between o-methyl-p-nitrophenol and p-nitrophenol (apparent Kd) ([1]; apparent in vivo Kd): approximately sevenfold
O=C(O)Cc1ccc(O)c(Br)c1 [3-bromo-4-hydroxyphenylacetic acid] | 3.2 ± 0.5 | –OH (8.5) |  | 
O=C(O)Cc1cccc(Cl)c1 [3-chloro-phenylacetic acid] |  |  | no binding | increase in fluorescence levels (in words) [1]: No increase
O=C(O)Cc1ccc(O)c(F)c1 [3-fluoro-4-hydroxyphenylacetic acid] | 1.8 ± 0.2 | –OH (8.8) |  | 
Nc1ccc([N+](=O)[O-])cc1 [4-nitroaniline] |  |  | no binding | 
O=[N+]([O-])c1ccc(O)cc1 [4-nitrophenol] | 2.8 ± 0.2 | –OH (7.2) |  | 
O=C(O)Cc1ccc(O)cc1 [HPA, 4-hydroxyphenylacetic acid] | 2.1 ± 0.2 | –OH (10.2) |  | 
O=C(O)Cc1ccc(O)c(Cl)c1 [OCPA, 3-chloro-4-hydroxyphenylacetic acid] | 2.0 ± 0.2 | –OH (8.5) |  | fold induction at 0.6 µM ([1]; 3 h, read-out: increase in fluorescence levels): ~10; apparent Kd smaller than established Kd values ([1]; pGFPUV-DB7 system vs earlier Kd values): approximately 100 fold; transcriptional activation response (in words) [3]: complete loss; Kd (apparent) ([3]; in vivo): no response; Kd [4]: 10.2 ± 0.9 µM; n (Hill coefficient) ([4]; in vivo, Y76F mutant): 1.6 ± 0.1; Kd [5]: 1.03 ± 0.06 µM; n (Hill coefficient) ([5]; in vivo, G85A mutant): 1.5 ± 0.1; Kd [6]: 86.7 ± 5.8 µM; n (Hill coefficient) ([6]; in vivo, G85P mutant): 1.9 ± 0.3; increase of CprK affinity in the presence of a DNA promoter fragment [7]: approximately 10 fold; difference in affinity between OCPA and HPA ([7]; estimated from indirect in vitro measurements): ~10^4; Kd ([7]; previously reported in vitro): 0.8 to 3.5 µM; decrease in the Kd caused by the Y76F mutation [8]: approximately 10 fold
